Experimental findings from patent US20260209195A1, “METHOD FOR PRODUCING 2-AMINO-5-SUBSTITUTED-1,3,4-OXADIAZOLE” (MITSUBISHI GAS CHEMICAL NEXT COMPANY, INC., priority 2022, published 2026) are described below.

The data set is described as follows: solubility of 2-amino-5-methyl-1,3,4-oxadiazole in water and aqueous NaCl solution (salting-out effect). Type of data set: physicochemical.

For the compound `Cc1nnc(N)o1` [2-amino-5-methyl-1,3,4-oxadiazole], the “solubility in a 10 mass % aqueous NaCl solution” value (10 mass % aqueous NaCl solution (30° C. as in the same sentence)) worked out at 7.9 % by mass. Moreover, the “solubility in a 26.4 mass % aqueous NaCl solution” value runs as follows: (30° C.) 3.5 % by mass; (−5° C.) 1.1 % by mass. Where the note is “water, 30° C.”, the solubility in water stood at 13.9 % by mass.
